This note sets out measurements from US20250179047A1, “5-[7-(3,4-DIHYDRO-1H-ISOQUINOLINE-2-CARBONYL)-1,2,3,4 TETRAHYDROISOQUINOLIN-6-YL]-1H-PYRROLE-3-CARBOXAMIDE DERIVATIVES, PHARMACEUTICAL COMPOSITIONS CONTAINING THEM AND THEIR USES AS PRO-APOPTOTIC AGENTS” (LES LABORATOIRES SERVIER, priority 2022, published 2025).

For one test, the target named is BCLXL WT (Homo sapiens (Human), UniProt Q07817). Kind of test: TR-FRET competitive binding assay, BCLXL WT. Conditions: for Ki: BCLXL WT, Ki determined from IC50, read-out: TR_FRET EKI BclxL; for TR_FRET EKI BCLxL/WT selectivty ratio: ratio Ki BCLxL / Ki BCL2 WT. An outline of the steps:
(§1)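 Ki derived from IC50 (11-point dilution, 520/495 nm emission ratio) for displacing a fluorescein-labelled PUMA peptide (2 or 20 nM). Target was 0.5 nM E. coli-expressed Halo-tagged BCL2 (1-207) or BCLXL (2-196), terbium-labelled on Halo. Incubation 2 h at 23°C in pH 7.5 Hepes with 150 mM NaCl and 5% DMSO.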
Background: Time-resolved FRET reads energy transfer from a long-lived donor to a nearby acceptor.

The test system of a further test is KMS-12-PE Bcl-2 WT. Kind of test: In vitro cytotoxicity CellTiter-Glo 48 h, KMS-12-PE Bcl-2 WT. Conditions: Homo sapiens, KMS-12-PE, C50 = concentration needed to reach 50% of the cellular viability. The test is classed as cell-based. An outline of the steps:
(§2)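 KMS-12-PE myeloma cells lentivirally transduced with Bcl-2 WT or G101V (TagRFP-sorted), exposed to compound 11-point dose-response for 48 h at 37 °C, 5% CO2. Viability read by CellTiter-Glo ATP luminescence; C50 is the concentration giving 50% cellular viability.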

For a further test, the system named is KMS-12-PE Bcl-2 G101V. Kind of test: In vitro cytotoxicity CellTiter-Glo 48 h, KMS-12-PE Bcl-2 G101V. Particulars: for Ratio (G101V/WT): C50 KMS-12-PE Bcl-2 G101V over C50 KMS-12-PE Bcl-2 WT; for IC50: Homo sapiens, KMS-12-PE, 48 h, CellTiter-Glo, C50 = concentration needed to reach 50% of the cellular viability. The test is classed as cell-based. In a few lines: as §2
Background: In ATP-based viability assays light output follows the ATP content of the culture.

The target in the next test is BCL2 D103Y (Homo sapiens, UniProt P10415, D103Y). Kind of test: TR-FRET competitive binding assay, BCL2 D103Y. Particulars: Ki determined from IC50, read-out: TR_FRET EKI_Bcl2 D103Y. In a few lines:
as §1

The target in another test is BCL2 WT (Homo sapiens (Human), UniProt P10415). Nature of the test: TR-FRET competitive binding assay, BCL2 WT. Conditions: Ki determined from IC50, read-out: TR_FRET EKI_Bcl2 WT. An outline of the steps: as §1
Test [1] deals with BCL2 G101V. Nature of the test: TR-FRET competitive binding assay, BCL2 G101V. Conditions: ratio Ki BCL2 G101V / Ki BCL2 WT. Also on record: species or system human. In a few lines:
as §1

Test [2] concerns the target BCL2 G101V (Homo sapiens, UniProt P10415, G101V). Nature of the test: TR-FRET competitive binding assay, BCL2 G101V. Particulars: BCL2 G101V; Ki determined from IC50; read-out: TR_FRET EKI_Bcl2 G101V. In a few lines: as §1

Structures are written as SMILES.

Sequence of BCLXL WT (Q07817 other isoform, or with tags, fused parts or gaps): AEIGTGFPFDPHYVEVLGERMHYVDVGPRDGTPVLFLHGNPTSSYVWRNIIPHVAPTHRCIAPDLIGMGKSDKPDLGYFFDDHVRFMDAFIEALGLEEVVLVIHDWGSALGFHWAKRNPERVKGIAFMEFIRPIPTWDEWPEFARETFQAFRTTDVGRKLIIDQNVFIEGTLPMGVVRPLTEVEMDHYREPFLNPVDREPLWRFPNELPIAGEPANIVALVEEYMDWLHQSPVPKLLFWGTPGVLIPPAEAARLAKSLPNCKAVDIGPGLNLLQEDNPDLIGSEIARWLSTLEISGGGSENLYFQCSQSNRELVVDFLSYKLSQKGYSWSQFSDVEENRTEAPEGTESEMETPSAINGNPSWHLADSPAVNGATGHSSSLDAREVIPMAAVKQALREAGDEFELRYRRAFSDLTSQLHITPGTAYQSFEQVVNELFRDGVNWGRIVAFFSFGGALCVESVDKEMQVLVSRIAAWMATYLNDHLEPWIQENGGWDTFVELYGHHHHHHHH

As to `Cc1c(N(C(=O)c2cc(-c3cc4c(cc3C(=O)N3Cc5ccccc5C[C@H]3CN3CCCCC3)CN(C(=O)Cc3ccc(OCCN5CCC(F)(F)C5)cc3)CC4)n(C)c2C)c2ccc(O)cc2)cc(C#N)n1C` [Example 82, N-(5-cyano-1,2-dimethylpyrrol-3-yl)-5-[2-(2-{4-[2-(3,3-difluoropyrrolidin-1-yl)ethoxy]phenyl}acetyl)-7-{[(3S)-3-(piperidin-1-ylmethyl)-3,4-dihydro-1H-isoquinolin-2-yl]carbonyl}-3,4-dihydro-1H-isoquinolin-6-yl]-N-(4-hydroxyphenyl)-1,2-dimethylpyrrole-3-carboxamide], the Ki at BCLXL WT is 6.3 nM; on BCL2 D103Y, 0.35 nM; at BCL2 WT, 0.19 nM; at BCL2 G101V [2], 1.2 nM. Also, the “TR_FRET EKI BCLxL/WT selectivty ratio” value at BCLXL WT is 33.9. Also, the IC50 came to 0.0095 µM in the test on KMS-12-PE Bcl-2 WT and 0.0572 µM in the test on KMS-12-PE Bcl-2 G101V. Besides, the “Ratio (G101V/WT)” value in the test with KMS-12-PE Bcl-2 G101V is reported as 6.45. Further, the “TR_FRET EKI G101V/WT selectivty ratio” value in the test on BCL2 G101V [1] was 6.7.

In the case of `Cc1c(N(C(=O)c2cc(-c3cc4c(cc3C(=O)N3Cc5ccccc5C[C@H]3CN3CCCCC3)CN(C(=O)Cc3cc(F)c(OCCN5CCOCC5)cc3F)CC4)n(C)c2C)c2ccc(O)cc2)cc(C#N)n1C` [Example 83, N-(5-cyano-1,2-dimethylpyrrol-3-yl)-5-[2-(2-{2,5-difluoro-4-[2-(morpholin-4-yl)ethoxy]phenyl}acetyl)-7-{[(3S)-3-(piperidin-1-ylmethyl)-3,4-dihydro-1H-isoquinolin-2-yl]carbonyl}-3,4-dihydro-1H-isoquinolin-6-yl]-N-(4-hydroxyphenyl)-1,2-dimethylpyrrole-3-carboxamide], the Ki amounted to 9.3 nM at BCLXL WT, 0.21 nM on BCL2 D103Y, 0.09 nM on BCL2 WT and 0.9 nM on BCL2 G101V [2]. Besides, the “TR_FRET EKI BCLxL/WT selectivty ratio” value on BCLXL WT worked out at 109.4. Also, the IC50 in the test with KMS-12-PE Bcl-2 WT stood at 0.0125 µM; in the test on KMS-12-PE Bcl-2 G101V, 0.0958 µM. Also, in the test on KMS-12-PE Bcl-2 G101V, the “Ratio (G101V/WT)” value is recorded as 8.1. The “TR_FRET EKI G101V/WT selectivty ratio” value with BCL2 G101V [1] is recorded as 10.9.

As for `Cc1c(C(=O)N(c2ccc(O)cc2)c2cnn(C)c2)cc(-c2cc3c(cc2C(=O)N2Cc4ccccc4C[C@H]2C)CN(C(=O)Cc2ccc(OCCC4CCOCC4)cc2)CC3)n1C` [Example 85, N-(4-hydroxyphenyl)-1,2-dimethyl-5-(7-{[(3R)-3-methyl-3,4-dihydro-1H-isoquinolin-2-yl]carbonyl}-2-(2-{4-[2-(oxan-4-yl)ethoxy]phenyl}acetyl)-3,4-dihydro-1H-isoquinolin-6-yl)-N-(1-methylpyrazol-4-yl)pyrrole-3-carboxamide], the Ki at BCLXL WT was found to be 9.8 nM; at BCL2 D103Y it was 0.39 nM; on BCL2 WT it was 0.32 nM; at BCL2 G101V [2] it was 1.1 nM. Moreover, the “TR_FRET EKI BCLxL/WT selectivty ratio” value at BCLXL WT was found to be 30.6. For the same compound, the figures for the IC50 in the test on KMS-12-PE Bcl-2 WT and in the test with KMS-12-PE Bcl-2 G101V were 0.0061 µM and 0.051 µM, respectively. Further, in the test on KMS-12-PE Bcl-2 G101V, the “Ratio (G101V/WT)” value is recorded as 8.42. Besides, the “TR_FRET EKI G101V/WT selectivty ratio” value in the test on BCL2 G101V [1] was determined as 3.3.

As for `Cc1c(N(C(=O)c2cc(-c3cc4c(cc3C(=O)N3Cc5ccccc5C[C@H]3CN3CCCCC3)CN(C(=O)Cc3ccc(OCCN(C)C5CC5)cc3F)CC4)n(C)c2C)c2ccc(O)cc2)cc(C#N)n1C` [Example 88, N-(5-cyano-1,2-dimethylpyrrol-3-yl)-5-{2-[2-(4-{2-[cyclopropyl(methyl)amino]ethoxy}-2-fluorophenyl)acetyl]-7-{[(3S)-3-(piperidin-1-ylmethyl)-3,4-dihydro-1H-isoquinolin-2-yl]carbonyl}-3,4-dihydro-1H-isoquinolin-6-yl}-N-(4-hydroxyphenyl)-1,2-dimethylpyrrole-3-carboxamide], the Ki at BCLXL WT stood at 1.7 nM; at BCL2 D103Y it was 0.27 nM; at BCL2 WT it was 0.1 nM; at BCL2 G101V [2], 0.6 nM. At BCLXL WT, the “TR_FRET EKI BCLxL/WT selectivty ratio” value was 17.0. The IC50 in the test with KMS-12-PE Bcl-2 WT was 0.0063 µM; in the test with KMS-12-PE Bcl-2 G101V it was 0.0296 µM. Moreover, in the test on KMS-12-PE Bcl-2 G101V, the “Ratio (G101V/WT)” value is given as 4.67. Further, the “TR_FRET EKI G101V/WT selectivty ratio” value with BCL2 G101V [1] stood at 5.9.

The term IC50 denotes the concentration needed to halve the response being measured.
